What was measured:
Assay type in all cases: in vivo, human
macular pigment [1] = assay: Macular pigment optical density by heterochromatic flicker photometry during lutein supplementation; details: 30 mg/day lutein ester, increased from 0.3
[2] = Serum lutein by HPLC during oral lutein ester supplementation; details: subjects three, equivalent of 30 mg lutein per day as lutein esters in canola oil, within the first week
Protocol: Serum lutein and zeaxanthin was measured by conventional HPLC.
Two healthy adult males (of age/weight 42 year/60 kg and 51 years/61 kg) ingested the equivalent of 30 mg of lutein per day in the form of lutein esters (source: marigold flowers) suspended in 2 ml of canola oil. This was continued over a period of 138 days and then the dose of lutein was discontinued. Chemical analysis has shown that the product contains approximately 97% lutein—and 3% zeaxanthin. Fasting serum lutein/zeaxanthin levels of both individuals were determined by conventional HPLC on the morning of the first dose as a measure of base line. Blood samples were drawn at 2-3 hour intervals throughout the first day for both subjects and then daily for the next three days. Following the first week of supplementation, blood samples were drawn weekly. Blood was collected into a standard Vacutainer serum separator tube containing no anticoagulant. After allowing about 30 min for coagulation, the sample was centrifuged for 10 minutes and the serum removed by pipette. Serum samples were stored at −20° C. prior to analysis. […] 20 μl of an internal standard, monohexyl lutein ether, containing about 90 ng, was added to the solution at this point for quantification of the caratenoids by HPLC. […]

macular pigment [3] = assay: Macular pigment optical density by heterochromatic flicker photometry during lutein supplementation
Protocol: A trial was conducted to determine if dietary supplementation with lutein and zeaxanthin effectively can change the pigment levels in the macula. The optical density of the macula pigment was measured for each subject using the method of flicker photometry (Bone and Sparrock 1971; Bone et al 1992). The concentration of pigment in the macula is proportioned to its optical density and the actual amount of pigment was assumed to be proportional to concentration. Thus, optical density was taken as a measure of the total amount of pigment.
Two healthy adult males (of age/weight 42 year/60 kg and 51 years/61 kg) ingested the equivalent of 30 mg of lutein per day in the form of lutein esters (source: marigold flowers) suspended in 2 ml of canola oil. This was continued over a period of 138 days and then the dose of lutein was discontinued. Chemical analysis has shown that the product contains approximately 97% lutein—and 3% zeaxanthin. Fasting serum lutein/zeaxanthin levels of both individuals were determined by conventional HPLC on the morning of the first dose as a measure of base line. Blood samples were drawn at 2-3 hour intervals throughout the first day for both subjects and then daily for the next three days. Following the first week of supplementation, blood samples were drawn weekly. Blood was collected into a standard Vacutainer serum separator tube containing no anticoagulant. After allowing about 30 min for coagulation, the sample was centrifuged for 10 minutes and the serum removed by pipette. Serum samples were stored at −20° C. prior to analysis. Carotenoids ware extracted from the serum by a minor modification of widely used methods (Guiliano et al, 1993; Handelmann et al, 1992), 200 μl aliquots of serum were diluted with 2 mL of 50% ethanol/water to ensure precipitation of protein components. 20 μl of an internal standard, monohexyl lutein ether, containing about 90 ng, was added to the solution at this point for quantification of the caratenoids by HPLC. This solution was extracted 3 times with 2 mL portions of hexane by vortexing the sample for 1 min followed by centrifuging for 5 minutes and pipetting off the hexane layer. The three portions of hexane were dried under a stream of nitrogen gas and stared under nitrogen at −20° C. until analysis was completed.
The optical density of the macular pigment was measured for each subject using the method of heterochomatic flicker photometry (Bone and Sparrock, 1971; Bone et al, 1992). The concentration of pigment in the macula is proportional to its optical density and the actual amount of pigment was assumed to be proportional to concentration. Thus optical density was taken to be a measure of the total amount of pigment.
In the flicker method, a small visual stimulus is presented to the eye which alternates in wavelength between 460 nm, the peak absorbance wavelength of the macular pigment, and 540 nm where pigment absorbance is zero (Bone et al., 1992). Above a certain frequency, color fusion occurs but the stimulus continues to flicker. At a higher frequency, a critical condition can be reached where flicker can be eliminated only if the two wavelength components are matched in luminance. If the stimulus is viewed peripherally, so that the image falls outside the macula, neither wavelength is attenuated by the macular pigment. However, if the stimulus is viewed centrally, the intensity of the 460 nm light must be increased to compensate for absorption by the macular pigment in order to achieve a luminance match. Thus it is possible to determine the optical density of a subject's macular pigment at the peak wavelength, or indeed any other wavelength.
The apparatus consisted of a two-channel Maxwellian view system based on a single light source, a 75 W xenon arc lamp. The wavelengths of the two channels were determined by 460 nm and 540 nm interference filters respectively, having half-widths of 7 and 9 nm. […]

[4] = Skin colour observation during lutein supplementation; details: each subject; after several weeks of administration, 30 mg lutein per day

Molecule: lutein ester
- macular pigment optical density (macular pigment [1]; subject one, both eyes, after 75 days, then plateau): 0.5
- macular pigment optical density (macular pigment [1]; subject two, left eye only): 0.5

Molecule: CC1=C[C@H](O)CC(C)(C)[C@H]1/C=C/C(C)=C/C=C/C(C)=C/C=C/C=C(C)/C=C/C=C(C)/C=C/C1=C(C)C[C@@H](O)CC1(C)C [lutein]
- increase in serum lutein concentration (factor) [2]: about 10 times
- day until which optical density continued to rise before plateau (macular pigment [3]; subject four, both eyes, dose discontinued at day 138): 200 days
- slope of macular pigment optical density (linear least squares fit) (macular pigment [3]; subject four, left eye, day -7 to day 83 of lutein supplementation): 3.1×10^−3 absorbance units per week
- macular pigment optical density, final average (macular pigment [3]; subject four, left eye, initial mean 0.76, p<0.001): 0.79
- slope of macular pigment optical density (linear least squares fit) (macular pigment [3]; subject four, right eye, day -7 to day 83 of lutein supplementation): 2.3×10^−3 absorbance units per week
- macular pigment optical density, final average (macular pigment [3]; subject four, right eye, initial mean 0.66, p<0.001): 0.70
- macular pigment optical density, final average (macular pigment [3]; subject three, left eye, average of 15 measurements over 18 days at end of experiment, initial values 0.57 and 0.58, p<0.0005): 0.70
- slope of macular pigment optical density (linear least squares fit) (macular pigment [3]; subject three, left eye, day -7 to day 72 of lutein supplementation): 15.3×10^−3 absorbance units per week
- macular pigment optical density, final average (macular pigment [3]; subject three, right eye, average of 15 measurements over 18 days at end of experiment, initial values 0.57 and 0.58, p<0.0005): 0.67
- day until which optical density continued to rise before plateau (macular pigment [3]; subject three, dose of lutein discontinued at day 138): ~180 days
- skin colour of the palms of the hands [4]: turned a noticeable yellow colour
